Results published in US9938562B2, “Naphthalene derived chromogenic enzyme substrates” (Glycosynth Limited, priority 2013, dated 2018).
Structures can show the parent of a compound that is named as a salt.

Tests used:
Format in all cases: cell-based
[1] = tested on: Pseudomonas aeruginosa NCTC 10662; test: Agar plate multi-point inoculation, colour
[2] = tested on: Serratia marcescens NCTC 10211; test: Agar plate multi-point inoculation, colour
[3] = tested on: Listeria monocytogenes NCTC 11994; test: Agar plate multi-point inoculation, colour
[4] = tested on: Providencia rettgeri NCTC 7475; test: Agar plate multi-point inoculation, colour
[5] = tested on: Morganella morganii 462403 (wild); test: Agar plate multi-point inoculation, colour; conditions: Columbia agar, FAC 500 mg/L, substrate 300 mg/L, 37° C. 18 h in air
[6] = tested on: Enterococcus faecium NCTC 7171; test: Agar plate multi-point inoculation, colour
[7] = tested on: Staphylococcus epidermidis NCTC 11047; test: Agar plate multi-point inoculation, colour
[8] = tested on: Candida glabrata NCPF 3943; test: Agar plate multi-point inoculation, colour
[9] = tested on: clinical isolates of E. coli
Shigella sonnei = test: Broth medium with ONPG (dual chromogenic system); conditions: combination with ONPG
Procedure: (§1) The two indoxyl glucuronides used produce insoluble endpoints following hydrolysis, as does the CPS ID 3 medium. It was therefore necessary to test these two substrates on agar plates. In contrast, DHN-β-D-glucuronide (12) gives a much more soluble endpoint best suited to liquid media and was therefore tested in a broth medium. The broth was prepared using proteose peptone (2 g), NaCl (1 g) and FAC (100 mg) in DI water (180 mL). This mixture was autoclaved and cooled to room temperature before being dispensed into bijoux (100×1.8 mL). DHN-β-D-glucuronide CHA salt (12a) (60 mg) was dissolved in water (20 mL) and filtered to sterilize before being aseptically dispensed into successive bijoux (0.2 mL) containing the broth solution. The broth/substrate solutions were then inoculated with bacterial suspensions made up to 0.5 McFarland standard (2 μL per bijoux). X-β-D-glucuronide CHA salt (Glycosynth Ltd, Warrington, UK) (10 mg) was dissolved in NMP (200 μL). […]
(§2) Because many E. coli produce both β-D-glucuronidase and β-D-galactosidase, DHN-β-D-glucuronide (12a) was tested as in the broth medium described above but in the presence of ONPG (at a concentration of 1.5 g/L). […] The colour of these solutions of mixed chromogens could be very readily distinguished with the unaided eye from the yellow colour of those strains, such as E. cloacae, that produced β-D-galactosidase only. […]

[10] = tested on: E. coli expressing both β-D-glucuronidase and β-D-galactosidase; test: Broth medium with ONPG (dual chromogenic system); conditions: broth with FAC, ONPG 1.5 g/L
Procedure: as §1, §2

[11] = tested on: Enterobacter cloacae NCTC 11936; test: Agar plate multi-point inoculation, colour
E. cloacae = test: Glucuronide screen, broth containing FAC
E. faecalis NCTC 775 = test: Glucuronide screen, broth containing FAC; conditions: E. faecalis NCTC 775, broth
[12] = tested on: Citrobacter freundii NCTC 9750 or 46262; test: Agar plate multi-point inoculation, colour; conditions: Columbia agar, FAC 500 mg/L, substrate 300 mg/L, 37° C. 18 h in air
[13] = tested on: Salmonella typhimurium NCTC 74; test: Agar plate multi-point inoculation, colour
[14] = tested on: Burkholderia cepacia 1222; test: Agar plate multi-point inoculation, colour; conditions: Columbia agar, FAC 500 mg/L, substrate 300 mg/L, 37° C. 18 h in air
[15] = tested on: Bacillus subtilis NCTC 9372; test: Agar plate multi-point inoculation, colour
[16] = tested on: Enterococcus faecalis NCTC 775; test: Agar plate multi-point inoculation, colour
[17] = tested on: Yersinia enterocolitica NCTC 11176; test: Agar plate multi-point inoculation, colour; conditions: Columbia agar, FAC 500 mg/L, substrate 300 mg/L, 37° C. 18 h in air
E. faecium NCTC 7171 = test: Glucuronide screen, broth containing FAC; conditions: E. faecium NCTC 7171, broth
[18] = tested on: Candida albicans ATCC 90028; conditions: Columbia agar, FAC 500 mg/L, substrate 300 mg/L, 37° C. 18 h in air
[19] = tested on: Steptococcus pyogenes NCTC 8306; test: Agar plate multi-point inoculation, colour
[20] = tested on: Staphylococcus aureus (MRSA) NCTC 11939; test: Agar plate multi-point inoculation, colour; conditions: Columbia agar, FAC 500 mg/L, substrate 300 mg/L, 37° C. 18 h in air
[21] = tested on: Staphylococcus aureus NCTC 6571; test: Agar plate multi-point inoculation, colour
[22] = tested on: Escherichia coli NCTC 10418; test: Agar plate multi-point inoculation, colour

O=C(O)C1OC(Oc2cc3ccccc3cc2O)C(O)C(O)C1O [Compound 12a, DHN-β-D-glucuronide CHA Salt]
Colour [1]: − | Colour [2]: − | Colour [3]: − | Colour [4]: − | Colour [5]: − | Colour [6]: − | Colour [7]: − | Colour [8]: − | % Sensitivity [9]: 82% | Colour [9]: Purple and − | Negative strains [9]: 18 | Positive strains [9]: 82 | detection of β-D-glucuronidase activity (Shigella sonnei): able to detect | colour of solutions [10]: purple-brown solutions | Colour [11]: − | Colour (E. cloacae; E. cloacae 260329R, broth): − | Colour (E. cloacae; E. cloacae NCTC 11936, broth): − | Colour (E. faecalis NCTC 775): − | Colour [12]: − | Colour [13]: − | Colour [14]: − | Colour [15]: − | Colour [16]: − | Colour [17]: − | Colour (E. faecium NCTC 7171): − | Colour [18]: − | Colour [19]: − | Colour [20]: − | Colour [21]: − | Colour [22]: ++ | hydrolysis of substrate (judged by colour) [22]: strong colour
